Data on four substances can be found in patent publication US12303483B2, “Lipase degradation resistant surfactants for use in large molecule therapeutic formulations” (Janssen Biotech, Inc., priority 2018, dated 2025).

Holding throughout (assay type): physicochemical
Series [1] concerns lipases immobilized on beads. The series is described as follows: Surfactant stock solutions exposed to lipases immobilized on beads, surfactant quantitation by UPLC-ELSD (Example 2). The conditions noted are these: over the course of 18 days. From the text: Materials: Surfactants investigated in this study included PFA and polysorbates. Two PFA, Brij® 35 (L23) (Product #ET47399, CAS #9002-92-0) and Brij® 98 (020) (Product #ET40118, CAS #9004-98-2), were obtained from Croda International PLC (East Yorkshire, UK). Polysorbate 20 (Product #4116-04, CAS #9005-64-5) and polysorbate 80 (Product #4117-03, CAS #9005-65-6) were obtained from JT Baker (Center Valley, Pennsylvania). Lipase immobilized on polystyrene beads at 2.0 U/mg (Product Number 73940) was obtained from Fluka (Denmark). All monoclonal antibodies (mAbs) were produced or acquired by Janssen Supply Chain, LLC (Horsham, Pennsylvania) and purified in a series of chromatography and filtration steps.
Surfactant Quantitation. Surfactant quantitation of samples was performed using UPLC with evaporative light scattering detection. Duplicate 7.5 μL sample injections were injected into an OASIS MAX column (30 μm, 2.1×20 mm). The mobile phase consisted of a gradient of milliQ water and isopropanol with 2% formic acid. The integrated area for each sample's eluting peak was assessed against a surfactant standard curve created from serial dilution of each surfactant type ranging from 0.005% (w/v) to 0.08% (w/v).
Stock solutions of PFA and polysorbate surfactants were exposed to lipases immobilized on beads over a period of 18 days. Surfactant levels in the solutions were quantified periodically over the course of testing to determine the extent of lipase-mediated degradation.

The subject of series [2] is mAbs A, B and C (50 mg/mL formulations). The series is described as follows: SEC percent monomer of mAb formulations with surfactant after shaking or thermal stress (Example 1). The conditions noted are these: 0.01% (w/v) surfactant; 3-month storage at 25° C. followed by shaking stress; compared with polysorbate (PS20 and PS80) formulations; Student's t-test p<0.01. On the procedure:
(§1) Size Exclusion Chromatography (SEC). The soluble aggregation quality attribute of the investigated formulations was evaluated using size exclusion ultra performance liquid chromatography (SE-UPLC). To prepare samples for analysis, collected formulations from each condition (time zero (T0) control, shaking stress, and thermal stress followed by shaking stress) were diluted with formulation buffer of each respective mAb from 50 mg/mL to 2 mg/mL. SEC runs were conducted with a 5 μL injection of sample into an Acquity UPLC 200 Å, 1.7 μm column using a 0.2 M sodium phosphate mobile phase. Eluting peaks were integrated to determine monomer content based on percent area of the main peak relative to sum of all peak areas.
To assess the protective effects of different surfactants in mAb formulations, polysorbate and PFA was spiked into formulations for three different mAbs. mAbs A and B are bispecific antibodies, and mAb C is an IgG4 monoclonal antibody. The formulations for mAbs A and B comprised 10 mM histidine, 8.5% (w/v) sucrose, at pH 5.7. The mAb C formulation consisted of 10 mM sodium phosphate, 8.5% (w/v) sucrose, 10 ppm EDTA, at pH 7.1. […] Each formulation condition was evaluated with vials in triplicate. The impact of the surfactant type and concentration was assessed using size exclusion chromatography (SEC).

In series [3] the test system is IgG4 mAb C. The series is described as follows: SEC percent monomer, formulation spiked with lipase-exposed surfactant (Example 3), mAb C. The settings on record: 0.01% surfactant exposed to lipase; mAb C (FIG. 3C). On the procedure: as §1
(§2) Further studies evaluated the ability of PFA and polysorbate formulations to retain their protective effects after exposures of the surfactants to lipase. The mAb formulations were spiked with surfactants that had been exposed to lipase-beads and then subjected to shaking stress or thermal stress followed by shaking. The mAb formulations were then evaluated for soluble aggregation and particulate matter using SEC and DLS, respectively.

Series [4] deals with bispecific mAb A. Put plainly: SEC percent monomer, formulation spiked with lipase-exposed surfactant (Example 3), mAb A. The settings on record: mAb A (FIG. 3A). The method, then: as §1, §2

For the substance “polyoxyethylene (20) oleyl ether [Brij® 020]”, in series [1], the “surfactant level in stock solutions exposed to lipases” value (“surfactant level” for short) is “remained relatively constant”. In series [2], the “percent monomer content (SEC)” value was “retain higher percent monomer content”.
With “polyoxyethylene (23) lauryl ether [Brij® L23]”, the “surfactant level” value in series [1] is given as “remained relatively constant”. Moreover, the “percent monomer content (SEC)” value in series [2] is on record as “retain higher percent monomer content”.
Take polysorbate 20 [PS20]: the “surfactant level” value in series [1] is “declined significantly”. Also, in series [3], the “percent monomer content (SEC) versus control formulation without any surfactant” value is reported as “lower percent monomer content”.
Consider polysorbate 80 [PS80], for which the “surfactant level” value in series [1] was “declined significantly”. Further, the “percent monomer content (SEC) versus control formulation without any surfactant” value in series [4] (0.01% surfactant exposed to lipase) and in series [4] (0.04% surfactant exposed to lipase) was “lower percent monomer content” in each case.
